{
  "source": "patent US20210179714A1",
  "about": "“Inhibition of CTLA-4 and/or PD-1 For Regulation of T Cells” (MEMORIAL SLOAN KETTERING CANCER CENTER, priority 2017, published 2021)",
  "key": {"4PD1^hi [1]": {"test_system": "4PD1^hi", "assay": "4PD1hi and Treg frequency/phenotype in tumor-bearing mice under treatment (FACS, immunofluorescence)", "assay_type": "in vivo, mouse", "procedure": "(§1) B16 melanoma cells were implanted intradermally (10^5 cells, for tumor-growth and survival analyses) or subcutaneously in matrigel (Matrigel Matrix Growth Factor Reduced, Becton Dickinson) (2×10^5 cells, for immune-cell infiltrate analyses) in C57BL/6J mice. Vaccination with VRP-TRP2 (AlphaVax Inc.) was performed by injection of 1×10^6 virus-like replicon particles (VRPs) (Zappasodi and Merghoub, 2015) expressing mouse TRP2 into the plantar surface of each footpad for 3 times 1 week apart, starting 3 days after tumor implantation (Avogadri et al., 2014). Treatment with anti-CTLA-4 (clone 9D9, 100 μg or 300 μg/injection), anti-PD-1 (clone RMP1-14, 250 μg/injection), or the matched isotype IgGs (BioXcell) was started 3-4 (optimal treatment) or 6-7 days (suboptimal treatment) after tumor implantation for respectively 5 or 4 intraperitoneal (i.p.) administrations 3 days apart. Immunization with sRBC was performed i.p. with 200 μl 10% volume/volume sRBC solution (Innovative Research). The Bcl6 inhibitor 79.6 (Calbiochem) was administered daily i.p. in 10% DMSO at 50 mg/kg (Cerchietti et al., 2010). TUBO breast carcinoma cells were implanted subcutaneously in Balb/c mice (10^6 cells/mouse) and anti-CTLA-4 treatment was started 10 days after. Animals were monitored at least twice a week and were considered tumor-free until intradermal lesions were palpable.\n(§2) Tumors were dissociated after 30 min incubation with Liberase TL and DNAse I (Roche) to obtain single-cell suspensions. When tumor mass exceeded 0.1 gr, immune-cell infiltrates were enriched by Percoll (GE Healthcare) gradient centrifugation. Cells from tumor-draining lymph nodes and spleens were prepared by mechanical dissociation on 40 μM filters and RBC lysis (ACK buffer, Lonza). Mouse PB was collected by retro-orbital puncture and RBC were lysed with Pharm Lyse Buffer (BD Bioscences). […]"}, "B16 melanoma": {"test_system": "B16 melanoma", "assay": "Tumor growth and tumor-free survival in tumor-bearing mice", "assay_type": "in vivo, mouse", "procedure": "as §1"}, "4PD1^hi [2]": {"test_system": "4PD1^hi", "assay": "FACS monitoring of circulating 4PD1hi in advanced NSCLC patients during immune checkpoint blockade", "assay_type": "in vivo, human", "procedure": "To evaluate the role of 4PD1^hi in the development of anti-tumor immune responses in vivo, we monitored this cell population in cancer patients treated with immune checkpoint blockade. To detect human PD-1, we employed a mAb whose binding is not cross-blocked by the therapeutic αPD-1 Abs nivolumab or pembrolizumab (FIG. 7A). […] We thus explored in mice the capability of αCTLA-4 monotherapy to increase 4PD1^hi in a dose-dependent manner, by treating with 100 μg (standard dose in mice) or a higher amount (300 μg) of αCTLA-4 (FIG. 8B). […] Furthermore, in different mouse strains (C57BL/6J and Balb/c) we observed that the presence of tumor contributes to anti-CTLA-4-mediated induction of 4PD1^hi.\n(§3) All patients and healthy donors signed an approved informed consent before providing tissue samples. Patient samples were collected on a tissue-collection protocol approved by the MSKCC Institutional Review Board and processed as described (Holmgaard et al., 2015).\nas §2, with “Lonza).” for “Lonza). Mouse PB was collected by retro-orbital puncture and RBC were lysed with Pharm Lyse Buffer (BD Bioscences).”"}, "4PD1^hi [3]": {"test_system": "4PD1^hi", "assay": "FACS monitoring of circulating 4PD1hi / CD4+ T-cell subsets in advanced melanoma patients during immune checkpoint blockade", "assay_type": "in vivo, human", "settings": "for circulating 4PD1hi frequency: metastatic melanoma patients, ipilimumab n=47, pembrolizumab n=52, relative to baseline", "description": "We further confirmed the results achieved in NSCLC patients in larger cohorts of metastatic melanoma patients treated with ipilimumab (FIG. 8C, αCTLA-4, n=47) or the αPD-1 pembrolizumab (FIG. 8C, n=52, 50/52 upon relapse on ipilimumab). αCTLA-4 increased circulating 4PD1^hi, while administration of αPD-1 reduced their frequency (FIG. 8C). We further substantiated the capability of αPD-1 (pembrolizumab) to down-regulate 4PD1hi in an independent cohort of melanoma patients (Huang et al., 2017) (FIG. 8F).\nas §3\nTumors were dissociated after 30 min incubation with Liberase TL and DNAse I (Roche) to obtain single-cell suspensions. When tumor mass exceeded 0.1 gr, immune-cell infiltrates were enriched by Percoll (GE Healthcare) gradient centrifugation. Cells from tumor-draining lymph nodes and spleens were prepared by mechanical dissociation on 40 μM filters and RBC lysis (ACK buffer, Lonza). Mouse PB was collected by retro-orbital puncture and RBC were lysed with Pharm Lyse Buffer (BD Bioscences). Surface staining of mouse cells was performed after 15 min pre-incubation with anti-mouse CD16/CD32 Ab (clone 2.4G2; BD Biosciences) to block FcγR binding, with panels of appropriately diluted fluorochrome-conjugated Abs (from BD Biosciences, eBioscience or Invitrogen) against the following mouse proteins in different combinations: CD45 (clone 30-F11), CD45.1 (clone A20), CD4 (clone RM4-5), CD8a (clone 5H10), Thy1.1 (clone OX-7), B220 (RA3-6B2), CD19 (clone 1D3), PD-1 (RMP1-30), CD44 (clone IM7), CD62L (clone MEL-14), CD25 (clone PC61.5), CD86 (clone GL-1), I-A/I-E (clone M5/114.15.2), PD-L1 (clone MIH5), ICOS (clone C398.4A), CXCR5 (biotin-conjugated clone 2G8, followed by PE-/APC-labeled streptavidin staining), and a eFluor506 fixable viability dye. For intracellular staining, mouse cells were fixed and permeabilized (Foxp3 fixation/permeabilization buffer, eBioscience) and incubated with appropriately diluted PECF594-labeled anti-Bcl6 (clone K112-91, BD Biosciences), PECy7-labeled anti-Ki67 (clone B56, BD Biosciences), and FITC-labeled anti-Foxp3 (clone FJK-16s, eBioscience) Abs. Surface staining of human cells was performed in the presence of FcγR Blocking reagent (Miltenyi Biotec) with proper dilutions of fluorochrome-conjugated Abs (from BD Biosciences, eBioscience or Tonbo) against the following human proteins in different combinations: CD45 (clone HI30), CD45RA (clone HI100), CD4 (clone RPA-T4), PD-1 (clone MIH4 or J105 in anti-PD-1-treatment naïve samples), CD25 (clone MA251), ICOS (clone ISA-3), CXCR5 (clone RF8B2), CD19 (clone HIB19), and CD86 (clone FUN-1), and a eFluor506 fixable viability dye. For intracellular staining, human cells were fixed and permeabilized (Foxp3 fixation/permeabilization buffer, eBioscience) and then incubated with appropriately diluted eFuor450-labeled anti-Foxp3 (clone PCH101, eBiosciences), PECF594-labeled anti-Bcl6 (clone K112-91), and APC-labeled anti-CTLA-4 (clone BNI3, BD Biosciences) Abs."}, "circulating B cells": {"test_system": "circulating B cells", "assay": "CD86 expression on circulating B cells of metastatic melanoma patients", "assay_type": "in vivo, human", "settings": "ipilimumab 3 mg/kg q3 wks, n=16", "procedure": "as §3, §2"}},
  "data": [
    {"molecule": "O=C(O)CC(C(=O)O)n1c(O)c(C2=c3cc(Br)ccc3=NC2=O)sc1=S", "note": "(stereo not shown) [Bcl6 inhibitor]", "values": [
      {"measurement": "intra-tumor Tregs", "setting": "4PD1^hi [1]; Bcl6 inhibition", "value": "favored intra-tumor Treg expansion"},
      {"measurement": "total CD4+ or CD8+ T-cell intra-tumor infiltration", "setting": "4PD1^hi [1]; Bcl6 inhibition", "value": "did not find significant increases"},
      {"measurement": "4PD1hi in the periphery and at the tumor site", "setting": "4PD1^hi [1]; Bcl6 inhibitor 50 mg/kg daily i.p.", "value": "effective in controlling"},
      {"measurement": "anti-tumor activity in RAG KO mice", "setting": "B16 melanoma; RAG KO mice lacking mature T and B cells, Bcl6 inhibition", "value": "completely lost"},
      {"measurement": "tumor growth", "setting": "B16 melanoma; WT mice, Bcl6 inhibitor, also in the context of CTLA-4 blockade and high baseline 4PD1hi", "value": "modestly (but significantly) delayed tumor growth"}
    ]},
    {"molecule": "ipilimumab", "values": [
      {"measurement": "circulating 4PD1hi", "setting": "4PD1^hi [2]; NSCLC patients, ipilimumab 1 or 3 mg/kg added to nivolumab 1 mg/kg, compared with nivolumab monotherapy", "value": "proportional increases"},
      {"measurement": "ICOS expression in CD4+ T cell subsets", "setting": "4PD1^hi [3]; melanoma cohort, 4PD1neg, Tregs and 4PD1hi", "value": "induced ICOS expression"},
      {"measurement": "circulating 4PD1hi frequency", "setting": "4PD1^hi [3]", "value": "increased"},
      {"measurement": "CD86 on circulating B cells", "setting": "circulating B cells", "value": "up-regulation"}
    ]},
    {"molecule": "pembrolizumab", "values": [
      {"measurement": "4PD1hi frequency, independent cohort", "setting": "4PD1^hi [3]; independent cohort of melanoma patients, pembrolizumab 2 mg/kg q3 wks, n=18", "value": "down-regulate"},
      {"measurement": "dose dependence of 4PD1hi down-regulation", "setting": "4PD1^hi [3]; melanoma patients, higher dose of pembrolizumab (2 mg/kg or 10 mg/kg)", "value": "more efficient at down-regulating"},
      {"measurement": "circulating 4PD1hi frequency", "setting": "4PD1^hi [3]", "value": "reduced"}
    ]},
    {"molecule": "nivolumab", "values": [
      {"measurement": "peripheral 4PD1hi frequency", "setting": "4PD1^hi [2]; metastatic NSCLC patients, nivolumab monotherapy (nivo3, 3 mg/kg q2 wks, n=10), relative to baseline", "value": "reduced"}
    ]}
  ]
}
